Values joined by “and” are separate entries in the source; they are usually repeats but may differ in a detail not shown here. Equal values may be shown once.
Test system: serum uric acid
Assay: Multi-dose Phase I clinical trial, serum uric acid (sUA), once daily for 10 days
Type: in vivo, human
Details: for % sUA change (from baseline), Mean (3-11) / Absolute sUA concentration, Mean (3-11): group 9, 10 mg once daily for 10 days, mean of subjects 3-11; for % sUA change (from baseline), Mean (4-12) / Absolute sUA concentration, Mean (4-12) / Absolute sUA concentration: group 7, 1 mg once daily for 10 days; for % sUA change (from baseline), Mean (4-12) / Absolute sUA concentration, Mean (4-12): mean of subjects 4-12; for Absolute sUA concentration: individual subjects 4-12
Description: A Phase 1, Randomized, Double-Blind, Placebo-Controlled Study to Evaluate Safety, Tolerability, Pharmacokinetics and Preliminary Food Effect of Multiple Rising Doses of a URAT1 Inhibitor, in Healthy Adult Male Volunteers.
Fasted subjects receive oral doses of active or placebo, once daily, for 10 days, at the following doses:
36 subjects in 3 dose groups, 12 subjects/group, are randomized […] to receive active (9/group) or placebo ([…]). All study procedures are the same regardless of whether subject receives active or placebo. Total duration of subject participation, including screening period, is ˜2-4 weeks, and the total volume of blood collected from each subject during the entire study <500 mL, (less than typically collected during a volunteer blood donation).
5 mg, active and placebo, tablets packaged in 35 count HDPE bottles, stored at controlled room temperature (15-30° C.). Placebo tablets are designed to match the active tablets—identical size, form, taste, and color, and containing the same excipients. 1 mg doses were administered as oral solutions.
Subjects dosed in the morning of Days 1-10 with ˜240 mL of room temp water.
Urine, serum and plasma samples collected periodically
PD samples frozen (−20° C.) and stored; all samples from a given subject assayed in a single analytical run.

## CC(C)(Sc1ccncc1-c1ccc(C#N)c2ccccc12)C(=O)O [2-((3-(4-cyanonaphthalen-1-yl)pyridin-4-yl)thio)-2-methylpropanoic acid]
Time 0 (baseline)
  % sUA change (from baseline), Mean (3-11): 0%
  Absolute sUA concentration, Mean (3-11): 6.4 mg/dL
Time 6
  % sUA change (from baseline), Mean (3-11): −30.2%
  Absolute sUA concentration, Mean (3-11): 4.5 mg/dL
  % sUA change (from baseline), Mean (4-12): −3.0%
  Absolute sUA concentration, Mean (4-12): 6.0 mg/dL
Time 12
  % sUA change (from baseline), Mean (3-11): −36.8%
  Absolute sUA concentration, Mean (3-11): 4.1 mg/dL
  % sUA change (from baseline), Mean (4-12): −9.2%
  Absolute sUA concentration, Mean (4-12): 5.6 mg/dL
Time 24
  % sUA change (from baseline), Mean (3-11): −32.0%
  Absolute sUA concentration, Mean (3-11): 4.4 mg/dL
  % sUA change (from baseline), Mean (4-12): 1.4%
  Absolute sUA concentration, Mean (4-12): 6.2 mg/dL
Time 48
  % sUA change (from baseline), Mean (3-11): −35.0%
  Absolute sUA concentration, Mean (3-11): 4.1 mg/dL
  % sUA change (from baseline), Mean (4-12): −17.6%
  Absolute sUA concentration, Mean (4-12): 5.1 mg/dL
Time 72
  % sUA change (from baseline), Mean (3-11): −49.7%
  Absolute sUA concentration, Mean (3-11): 3.2 mg/dL
  % sUA change (from baseline), Mean (4-12): −3.4%
  Absolute sUA concentration, Mean (4-12): 6.0 mg/dL
Time 96
  % sUA change (from baseline), Mean (3-11): −53.7%
  Absolute sUA concentration, Mean (3-11): 3.0 mg/dL
  Absolute sUA concentration: 5.0 mg/dL (2×) and 5.1 mg/dL (2×) and 6.7 mg/dL (2×) and 6.1 mg/dL and 6.0 mg/dL and 5.5 mg/dL
  % sUA change (from baseline), Mean (4-12): −7.9%
  Absolute sUA concentration, Mean (4-12): 5.7 mg/dL
Time 102
  % sUA change (from baseline), Mean (3-11): −55.2%
  Absolute sUA concentration, Mean (3-11): 2.9 mg/dL
  Absolute sUA concentration: 4.4 mg/dL and 4.9 mg/dL (2×) and 6.2 mg/dL (2×) and 5.9 mg/dL and 5.7 mg/dL and 4.6 mg/dL and 5.4 mg/dL
  % sUA change (from baseline), Mean (4-12): −13.2%
  Absolute sUA concentration, Mean (4-12): 5.4 mg/dL
Time 108
  % sUA change (from baseline), Mean (3-11): −57.2%
  Absolute sUA concentration, Mean (3-11): 2.7 mg/dL
  Absolute sUA concentration: 4.1 mg/dL and 4.4 mg/dL and 4.8 mg/dL and 6.1 mg/dL and 5.9 mg/dL and 5.4 mg/dL and 5.6 mg/dL and 4.3 mg/dL and 5.0 mg/dL
  % sUA change (from baseline), Mean (4-12): −18.0%
  Absolute sUA concentration, Mean (4-12): 5.1 mg/dL
Time 120
  % sUA change (from baseline), Mean (3-11): −47.0%
  Absolute sUA concentration, Mean (3-11): 3.4 mg/dL
  Absolute sUA concentration: 4.6 mg/dL and 5.0 mg/dL (2×) and 4.9 mg/dL and 6.6 mg/dL and 6.2 mg/dL (2×) and 5.8 mg/dL and 5.6 mg/dL
  % sUA change (from baseline), Mean (4-12): −10.3%
  Absolute sUA concentration, Mean (4-12): 5.5 mg/dL
Time 144
  % sUA change (from baseline), Mean (3-11): −44.3%
  Absolute sUA concentration, Mean (3-11): 3.5 mg/dL
  Absolute sUA concentration: 4.6 mg/dL and 5.0 mg/dL (2×) and 4.8 mg/dL and 6.5 mg/dL and 6.2 mg/dL and 6.1 mg/dL and 5.8 mg/dL and 5.5 mg/dL
  % sUA change (from baseline), Mean (4-12): −11.0%
  Absolute sUA concentration, Mean (4-12): 5.5 mg/dL
Time 168
  % sUA change (from baseline), Mean (3-11): −49.6%
  Absolute sUA concentration, Mean (3-11): 3.2 mg/dL
  Absolute sUA concentration: 5.2 mg/dL and 5.8 mg/dL and 5.6 mg/dL and 7.2 mg/dL and 6.8 mg/dL and 6.3 mg/dL and 6.5 mg/dL and 5.4 mg/dL and 6.2 mg/dL
  % sUA change (from baseline), Mean (4-12): −0.8%
Time 192
  % sUA change (from baseline), Mean (3-11): −55.8%
  Absolute sUA concentration, Mean (3-11): 2.8 mg/dL
Time 216
  % sUA change (from baseline), Mean (3-11): −51.3%
  Absolute sUA concentration, Mean (3-11): 3.1 mg/dL
Time 222, post dosing
  % sUA change (from baseline), Mean (3-11): −56.1%
  Absolute sUA concentration, Mean (3-11): 2.8 mg/dL
Time 228, post dosing
  % sUA change (from baseline), Mean (3-11): −57.8%
  Absolute sUA concentration, Mean (3-11): 2.7 mg/dL
Time 240, post dosing
  % sUA change (from baseline), Mean (3-11): −48.6%
  Absolute sUA concentration, Mean (3-11): 3.3 mg/dL
Time 246, post dosing
  % sUA change (from baseline), Mean (3-11): −42.8%
  Absolute sUA concentration, Mean (3-11): 3.7 mg/dL
Time 252, post dosing
  % sUA change (from baseline), Mean (3-11): −43.6%
  Absolute sUA concentration, Mean (3-11): 3.6 mg/dL
Time 264, post dosing
  % sUA change (from baseline), Mean (3-11): −38.9%
  Absolute sUA concentration, Mean (3-11): 3.9 mg/dL
Time 270, post dosing
  % sUA change (from baseline), Mean (3-11): −36.1%
  Absolute sUA concentration, Mean (3-11): 4.1 mg/dL
Time 288, post dosing
  % sUA change (from baseline), Mean (3-11): −35.1%
  Absolute sUA concentration, Mean (3-11): 4.2 mg/dL
Time 312, post dosing
  % sUA change (from baseline), Mean (3-11): −25.9%
  Absolute sUA concentration, Mean (3-11): 4.7 mg/dL
Time 0
  % sUA change (from baseline), Mean (4-12): 0%
  Absolute sUA concentration, Mean (4-12): 6.2 mg/dL

From US10047050B2, “3,4-di-substituted pyridine compound, methods of using and compositions comprising the same” (ARDEA BIOSCIENCES, INC., priority 2011, dated 2018)
